# System: MM cells
# Experiment: Gene expression and proteomic profiling of IGF-1R inhibition
# Type: cell-based, human
# Conditions: expression profiling, proteomic analyses, confirmatory assays
# Description: Subsequent analysis of scanned image output files were analyzed with Affymetrix GeneChip Microarray Analysis Suite 5.0 software (Affymetrix), normalized and analyzed by hierarchical clustering, functional clustering and relevance network algorithms, as in previous studies. High-throughput global proteomic analysis of the signaling state of IGF-1R-inhibitor-treated MM cells was performed by multiplex-immunoblotting arrays using the KPKS-1.0 and KPSS-1.0 platforms, as previously described (Mitsiades C S et al. Semin Oncol. April 2003; 30(2): 156-60 and Mitsiades N et al. Blood. Mar. 15, 2003; 101(6): 2377-80).
# Total RNA was extracted and purified with the Qiagen RNeasy kit (Qiagen, San Diego, Calif.). Five micrograms of total RNA was used in the first-strand cDNA synthesis with T7-d(T)24 primer ([…]-(dT)24) (SEQ ID NO: 1) and Superscript II (GIBCO-BRL, Rockville, Md.). The second-strand cDNA synthesis was carried out at 16° C. by adding Escherichia coli DNA ligase, E. coli DNA polymerase I, and RNase H to the reaction, followed by T4 DNA polymerase to blunt the ends of newly synthesized cDNA. The cDNA was purified through phenol/chloroform and ethanol precipitation. […] Scanned image output files were visually examined for major chip defects and hybridization artifacts and then analyzed with Affymetrix GeneChip® (array) Microarray Analysis Suite 5.0 software (Affymetrix). […]
smiles,measurement,value
"Nc1ncnc2c1c(-c1cccc(OCc3ccccc3)c1)cn2[C@H]1C[C@H](CN2CCCC2)C1 [ADW-742, trans-5-(3-benzyloxy-phenyl)-7-(3-pyrrolidin-1-ylmethyl-cyclobutyl)-7H-pyrrolo[2,3-d]pyrimidin-4-ylamine]",proliferative/anti-apoptotic molecular events associated with exposure to IGF-1 or serum,suppressed
